Reference: patent publication US20200045954A1, “NOVEL COMPOSITION FOR ORGAN PRESERVATION” (priority 2018, published 2020)
Non-standard residues stand in square brackets, D forms with d. No end group written: not given here.

Columns and labels:
[1] = test system: isolated perfused rat hearts; assay: Cardiac function of isolated perfused rat hearts (modified Langendorff) subjected to global I(30 min)/R(45 min); details: for blocking of the cardio-protective effects of tri-peptide: opioid antagonist 5 μM given with tri-peptide 50 μM
[2] = Ventilator induced diaphragmatic dysfunction
[3] = test system: isolated perfused rat hearts; assay: Infarct size by TTC staining of isolated perfused rat hearts after I(30 min)/R(45 min)
[4] = compared to untreated control I/R hearts, tri-peptide 50 μM
[5] = final value, 45 min reperfusion
[6] = initial (baseline) value, mean ± S.E.M.

Compound | blocking of the cardio-protective effects of tri-peptide [1] | ventilator induced diaphragmatic dysfunction [2] | infarct size ([3]; TTC staining after I(30 min)/R(45 min)) | infarct size [3, 4] | post-reperfused cardiac function [1, 4] | Final +dP/dtmax [1, 5] | Final Coronary How [1, 5] | Final Heart Rate [1, 5] | Final LVEDP [1, 5] | Final LVESP [1, 5] | Final −dP/dtmin [1, 5] | Final LVDP ([1]; final value, 45 min reperfusion, LVDP=LVESP−LVEDP) | Initial +dP/dtmax ([1]; initial (baseline) value) | Initial Coronary Flow ([1]; initial (baseline) value) | Initial Heart Rate ([1]; initial (baseline) value) | Initial LVDP ([1]; initial (baseline) value, LVDP=LVESP−LVEDP) | Initial LVEDP [1, 6] | Initial LVESP [1, 6]
Oc1ccc2c3c1O[C@H]1c4[nH]c5c(c4C[C@@]4(O)[C@@H](C2)N(CC2CC2)CC[C@]314)C[C@@]1(O)[C@H]2Cc3ccc(O)c4c3[C@@]1(CCN2CC1CC1)[C@H]5O4 [BNI, nor-Binaltorphimine, reference compound] | blocked | – | – | – | – | – | – | – | – | – | – | – | – | – | – | – | – | –
Oc1ccc2c3c1O[C@H]1c4[nH]c5ccccc5c4C[C@@]4(O)[C@@H](C2)N(CC2CC2)CC[C@]314 [NALD, naltrindole, reference compound] | not | – | – | – | – | – | – | – | – | – | – | – | – | – | – | – | – | –
Phe-[dR]-Phe-NH2 [tri-peptide] | – | attenuate | 26 ± 1% | reduced infarct size | significantly restored | 1126.8 ± 177.2 mmHg/s | 9.6 ± 1.5 mL/min | 276.3 ± 12.6 BPM | 50.1 ± 7.4 mmHg | 105.6 ± 6.1 mmHg | 965.5 ± 112.1 mmHg/s | 55.5 ± 6.0 mmHg | 2376.7 ± 75.1 mmHg/s | 17.7 ± 0.9 mL/min | 287.8 ± 8.1 BPM | 94.2 ± 2.7 mmHg | 6.7 ± 0.8 mmHg | 100.9 ± 3.1 mmHg
